Measured values reported in patent US20240279233A1, “MACROCYCLIC TAK1 INHIBITORS” (Aqilion AB, priority 2021, published 2024).
≈ marks a conversion by molar mass, not a printed value. Where two headings read alike, the source gives them in different places.

Assays:
[1] = Solubility assay in phosphate buffer; details: phosphate buffer, pH 7.4, aqueous buffer, kinetic from dmso stock
Method: The aqueous solubility of selected example compounds was determined as follows; 6 μL of DMSO stock solution of the selected example was added to 594 μL phosphate buffer (100 mM, pH 7.4). The resulting mixture was equilibrated over night (20-24 h, Alligator Shaker, room temperature). The mixture was then filtered (Millex LH 0.45 μm) and the concentration/solubility was determined by LC-UV quantification.

[2] = target: human recombinant TAK1-TAB1 Kinase (TAK1 (1-303) and TAB1 (437-end)) (Homo sapiens (Human), UniProt O43318); test: TAK1 biochemical ADP-Glo kinase assay; details: MBP substrate
In short: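 Inhibition of human recombinant TAK1-TAB1 kinase was measured with a Promega ADP-Glo luminescence assay in 384-well plates. Compounds in 5% DMSO were pre-incubated 10 min with 2 μl TAK1-TAB1 (7.5 ng/μl) in buffer of Tris pH 7.5, MgCl2, DTT and BSA. MBP substrate and ATP were then added for 1 hour at room temperature. ADP-Glo reagent and kinase detection substrate followed, luminescence was read on an Envision, and IC50 came from non-linear regression.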

[3] = Solubility (μM), phosphate buffer 100 mM, pH 7.4, room temperature, 20-24 h, LC-UV
[4] = 10 μM ATP, read-out: TAK1 Mean IC50 (nM) @ 10 μM ATP
[5] = 1 mM ATP, read-out: TAK1 Mean IC50 (nM) @ 1 mM ATP

human recombinant TAK1-TAB1 Kinase (TAK1 (1-303) and TAB1 (437-end)), sequence (O43318 other isoform, or with tags, fused parts or gaps): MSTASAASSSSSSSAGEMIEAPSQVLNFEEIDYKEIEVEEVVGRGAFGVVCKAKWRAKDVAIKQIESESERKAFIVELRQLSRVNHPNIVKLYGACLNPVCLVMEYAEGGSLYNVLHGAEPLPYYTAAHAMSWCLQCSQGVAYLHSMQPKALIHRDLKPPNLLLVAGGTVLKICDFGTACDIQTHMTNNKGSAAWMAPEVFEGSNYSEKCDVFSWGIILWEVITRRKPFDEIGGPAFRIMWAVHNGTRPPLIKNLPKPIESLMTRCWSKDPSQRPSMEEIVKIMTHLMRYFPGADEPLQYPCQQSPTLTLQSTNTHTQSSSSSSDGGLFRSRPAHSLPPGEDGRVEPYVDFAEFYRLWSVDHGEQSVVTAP

Row | SMILES | solubility [1, 3] | IC50 [2, 4] | IC50 [2, 5] | solubility [1]
1 | C[C@H]1CCCCNC(=O)c2cccc(c2)C(=O)Nc2nc3ccc(Cl)c(C(=O)N(C)C)c3n21 (single isomer, unassigned) [Example 54] | 9 µM (≈ 4.21 µg/mL) | 8 nM | 25 nM | 
2 | CC1CCCCNC(=O)c2cccc(c2)C(=O)/N=C2\Nc3cccc(C(=O)N4CCOC[C@H]4C)c3N21 (single isomer, unassigned) [Example 76] | 89 µM (≈ 43.6 µg/mL) | 18 nM |  | 
3 | CC1CCCCNC(=O)c2cccc(c2)C(=O)/N=C2\Nc3cccc(C(=O)N4CCOC[C@@H]4C)c3N21 (single isomer, unassigned) [Example 78] | 86 µM (≈ 42.1 µg/mL) | 8 nM |  | 
4 | CC1CCCCNC(=O)c2cccc(c2)C(=O)/N=C2\Nc3cccc(C(=O)N4CC5(CCO5)C4)c3N21 (single isomer, unassigned) [Example 79, (E)-11-methyl-1^7-(1-oxa-6-azaspiro[3.3]heptane-6-carbonyl)-1^2,1^3-dihydro-1^1H-2,6-diaza-1(2,1)-benzo[d]imidazola-4(1,3)-benzenacycloundecaphane-3,5-dione] |  | 6 nM | 7 nM | 90 µM (≈ 43.9 µg/mL)
5 | O=C1NCCCCCCn2c(nc3ccccc32)NC(=O)c2cccc1c2 [Example 1, 1^1H-2,6-diaza-1(2,1)-benzo[d]imidazola-4(1,3)-benzenacyclododecaphane-3,5-dione] | 1.2 µM (≈ 0.435 µg/mL) | 27 nM |  | 
6 | CN1CCN(C(=O)c2cccc3nc4n(c23)CCCCCNC(=O)c2cccc(c2)C(=O)N4)CC1 [Example 10, 1^7-(4-methylpiperazine-1-carbonyl)-1^1H-2,6-diaza-1(2,1)-benzo[d]imidazola-4(1,3)-benzenacycloundecaphane-3,5-dione] | 28 µM (≈ 13.3 µg/mL) | 11 nM |  | 
7 | CC(C)(C)OC(=O)N1CCN(C(=O)c2cccc3nc4n(c23)CCCCCNC(=O)c2cccc(c2)C(=O)N4)CC1 [Example 14, tert-butyl 4-(3,5-dioxo-1^1H-2,6-diaza-1(2,1)-benzo[d]imidazola-4(1,3)-benzenacycloundecaphane-1^7-carbonyl)piperazine-1-carboxylate] | 0.3 µM (≈ 0.168 µg/mL) | 11 nM |  | 
8 | C[C@H]1CCCCNC(=O)c2cccc(c2)C(=O)/N=C2\Nc3ccnc(N4CCN(C5CC5)C4=O)c3N21 [Example 122, (S,E)-1^4-(3-cyclopropyl-2-oxoimidazolidin-1-yl)-11-methyl-1^2,1^3-dihydro-1^1H-2,6-diaza-1(2,3)-imidazo[4,5-c]pyridina-4(1,3)-benzenacycloundecaphane-3,5-dione] |  | 9 nM | 57 nM | 
9 | C[C@H]1CCCCNC(=O)c2cccc(c2)C(=O)/N=C2\Nc3cc(CN4CCN(C)CC4)cc(C(=O)N(C)C)c3N21 [Example 124, (S,E)-N,N,11-trimethyl-1^5-((4-methylpiperazin-1-yl)methyl)-3,5-dioxo-1^2,1^3-dihydro-1^1H-2,6-diaza-1(2,1)-benzo[d]imidazola-4(1,3)-benzenacycloundecaphane-1^7-carboxamide] |  | 7 nM | 9 nM | 
10 | C[C@H]1CCCCNC(=O)c2cccc(c2)C(=O)/N=C2\Nc3ccnc(C(=O)N(C)C)c3N21 [Example 128, (S,E)-N,N,11-trimethyl-3,5-dioxo-1^2,1^3-dihydro-1^1H-2,6-diaza-1(2,3)-imidazo[4,5-c]pyridina-4(1,3)-benzenacycloundecaphane-1^4-carboxamide] |  | 7 nM |  | 
11 | C[C@H]1CCCCNC(=O)c2cccc(c2)C(=O)/N=C2\Nc3ccnc(N4CCN(C)C4=O)c3N21 [Example 130, (S,E)-11-methyl-1^4-(3-methyl-2-oxoimidazolidin-1-yl)-1^2,1^3-dihydro-1^1H-2,6-diaza-1(2,3)-imidazo[4,5-c]pyridina-4(1,3)-benzenacycloundecaphane-3,5-dione] |  | 7 nM | 27 nM | 
12 | Cc1nnc(-c2cccc3c2N2/C(=N/C(=O)c4cccc(c4)C(=O)NCCCC[C@@H]2C)N3)n1C(C)C [Example 134, (S,E)-1^7-(4-isopropyl-5-methyl-4H-1,2,4-triazol-3-yl)-11-methyl-1^2,1^3-dihydro-1^1H-2,6-diaza-1(2,1)-benzo[d]imidazola-4(1,3)-benzenacycloundecaphane-3,5-dione] |  | 10 nM | 12 nM | 
13 | C[C@H]1CCCCNC(=O)c2cccc(c2)C(=O)/N=C2\Nc3cncc(C(=O)N(C)C)c3N21 [Example 145, (S,E)-N,N,11-trimethyl-3,5-dioxo-1^2,1^3-dihydro-1^1H-2,6-diaza-1(2,1)-imidazo[4,5-c]pyridina-4(1,3)-benzenacycloundecaphane-1^7-carboxamide] |  | 10 nM |  | 

Second part, led by results:

Row | solubility [1, 3] | IC50 [2, 4] | IC50 [2, 5] | SMILES | solubility [1]
14 | 95 µM (≈ 41.2 µg/mL) | 3 nM | 14 nM | CC1CCCCNC(=O)c2cccc(c2)C(=O)Nc2nc3cccc(C(=O)N(C)C)c3n21 (single isomer, unassigned) [Example 32, (E)-N,N,11-trimethyl-3,5-dioxo-1^2,1^3-dihydro-1^1H-2,6-diaza-1(2,1)-benzo[d]imidazola-4(1,3)-benzenacycloundecaphane-1^7-carboxamide] | 
15 | 90 µM (≈ 41.9 µg/mL) | 5 nM | 6 nM | CC1CCCCNC(=O)c2cccc(c2)C(=O)/N=C2\Nc3cccc(C(=O)N(C)CCF)c3N21 (single isomer, unassigned) [Example 70, (E)-N-(2-fluoroethyl)-N,11-dimethyl-3,5-dioxo-1^2,1^3-dihydro-1^1H-2,6-diaza-1(2,1)-benzo[d]imidazola-4(1,3)-benzenacycloundecaphane-1^7-carboxamide] | 
16 | 88 µM (≈ 42 µg/mL) | 6 nM |  | CC1CCCCNC(=O)c2cccc(c2)C(=O)/N=C2\Nc3cccc(C(=O)N4CC[C@H](F)C4)c3N21 (single isomer, unassigned) [Example 89] | 
17 | 11 µM (≈ 4.87 µg/mL) | 4 nM |  | CC1CCCCNC(=O)c2cccc(c2)C(=O)/N=C2\Nc3cccc(-c4nccn4C)c3N21 (single isomer, unassigned) [Example 136, (E)-11-methyl-1^7-(1-methyl-1H-imidazol-2-yl)-1^2,1^3-dihydro-1^1H-2,6-diaza-1(2,1)-benzo[d]imidazola-4(1,3)-benzenacycloundecaphane-3,5-dione] | 
18 | 92.7 µM (≈ 45.3 µg/mL) | 5 nM |  | CC1CCCCNC(=O)c2cccc(c2)C(=O)Nc2nc3cccc(C(=O)N4CCN(C)CC4)c3n21 (centres unmarked) [Example 8, 11-methyl-1^7-(4-methylpiperazine-1-carbonyl)-1^1H-2,6-diaza-1(2,1)-benzo[d]imidazola-4(1,3)-benzenacycloundecaphane-3,5-dione] | 
19 | 4.8 µM (≈ 2.28 µg/mL) | 1 nM |  | CN1CCN(C(=O)c2ccc3c(c2)nc2n3CCCCCNC(=O)c3cccc(c3)C(=O)N2)CC1 [Example 11, 1^5-(4-methylpiperazine-1-carbonyl)-1^1H-2,6-diaza-1(2,1)-benzo[d]imidazola-4(1,3)-benzenacycloundecaphane-3,5-dione] | 
20 | 31.1 µM (≈ 16.1 µg/mL) | 1 nM |  | O=C1NCCCCCn2c(nc3cc(C(=O)N4CCN(C5COC5)CC4)ccc32)NC(=O)c2cccc1c2 [Example 12, 1^5-(4-(oxetan-3-yl)piperazine-1-carbonyl)-1^1H-2,6-diaza-1(2,1)-benzo[d]imidazola-4(1,3)-benzenacycloundecaphane-3,5-dione] | 
21 | 0.2 µM (≈ 0.112 µg/mL) | 1 nM |  | CC(C)(C)OC(=O)N1CCN(C(=O)c2ccc3c(c2)nc2n3CCCCCNC(=O)c3cccc(c3)C(=O)N2)CC1 [Example 13, tert-butyl 4-(3,5-dioxo-1^1H-2,6-diaza-1(2,1)-benzo[d]imidazola-4(1,3)-benzenacycloundecaphane-1^5-carbonyl)piperazine-1-carboxylate] | 
22 |  | 5 nM | 7 nM | C[C@H]1CCCCNC(=O)c2cccc(c2)C(=O)/N=C2\Nc3cc(CN4CCOCC4)cc(C(=O)N(C)C)c3N21 [Example 125, (S,E)-N,N,11-trimethyl-1^5-(morpholinomethyl)-3,5-dioxo-1^2,1^3-dihydro-1^1H-2,6-diaza-1(2,1)-benzo[d]imidazola-4(1,3)-benzenacycloundecaphane-1^7-carboxamide] | 
23 |  | 6 nM | 6 nM | C[C@H]1CCCCNC(=O)c2cccc(c2)C(=O)/N=C2\Nc3cccc(-c4cn(C5COC5)nn4)c3N21 [Example 129, (S,E)-11-methyl-1^7-(1-(oxetan-3-yl)-1H-1,2,3-triazol-4-yl)-1^2,1^3-dihydro-1^1H-2,6-diaza-1(2,1)-benzo[d]imidazola-4(1,3)-benzenacycloundecaphane-3,5-dione] | 
24 |  | 5 nM | 13 nM | CN(C)C(=O)c1cccc2c1N1/C(=N/C(=O)c3cccc(c3)C(=O)NCCCCC13CC3)N2 [Example 131, (E)-N,N-dimethyl-3′,5′-dioxospiro[cyclopropane-1,11′-2,6-diaza-1(2,1)-benzo[d]imidazola-4(1,3)-benzenacycloundecaphane]-7′-carboxamide] | 
25 |  | 5 nM | 9 nM | C[C@H]1CCCCNC(=O)c2cccc(c2)C(=O)/N=C2\Nc3cccc(N4CCC(F)C4=O)c3N21 (stereo partly drawn) [Example 146, (11S,E)-1^7-(3-fluoro-2-oxopyrrolidin-1-yl)-11-methyl-1^2,1^3-dihydro-1^1H-2,6-diaza-1(2,1)-benzo[d]imidazola-4(1,3)-benzenacycloundecaphane-3,5-dione] | 
26 |  | 5 nM |  | Cc1noc(-c2cccc3c2N2/C(=N/C(=O)c4cccc(c4)C(=O)NCCCC[C@@H]2C)N3)n1 [Example 147, (S,E)-11-methyl-1^7-(3-methyl-1,2,4-oxadiazol-5-yl)-1^2,1^3-dihydro-1^1H-2,6-diaza-1(2,1)-benzo[d]imidazola-4(1,3)-benzenacycloundecaphane-3,5-dione] | 
